19 molecules from US9409866B2, “Pyridine-2-amides useful as CB2 agonists” (Hoffmann-La Roche Inc., priority 2012, dated 2016) can be followed below.

The target in one assay is human CB1 receptors (Homo sapiens (Human), UniProt P21554). Nature of the assay: functional cAMP assay, CHO cells expressing human CB1. It is filed as cell-based. To be noted: functional cAMP assay, CHO cells expressing human CB1; read-out: Human CB1 EC50. Put shortly: (§1)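 CHO-hCB1/hCB2 cells, KRB + 1 mM IBMX preincubation 30 min 30 °C; cpd 30 min 30 °C; lysis + TR-FRET cAMP detection, 2 h RT; cAMP from std curve; EC50.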
In general terms: cAMP levels reflect the balance of adenylyl cyclase and phosphodiesterase activity.

A further assay deals with human CB2 receptors (Homo sapiens (Human), UniProt P34972). Briefly: functional cAMP assay, CHO cells expressing human CB2. It is filed as cell-based. The conditions noted are these: read-out: Human CB2 EC50. Put shortly:
as §1

SMILES strings stand for the structures. A value given as a limit tells only on which side of the number the result lay.

Chain of human CB1 receptors (P21554 whole entry): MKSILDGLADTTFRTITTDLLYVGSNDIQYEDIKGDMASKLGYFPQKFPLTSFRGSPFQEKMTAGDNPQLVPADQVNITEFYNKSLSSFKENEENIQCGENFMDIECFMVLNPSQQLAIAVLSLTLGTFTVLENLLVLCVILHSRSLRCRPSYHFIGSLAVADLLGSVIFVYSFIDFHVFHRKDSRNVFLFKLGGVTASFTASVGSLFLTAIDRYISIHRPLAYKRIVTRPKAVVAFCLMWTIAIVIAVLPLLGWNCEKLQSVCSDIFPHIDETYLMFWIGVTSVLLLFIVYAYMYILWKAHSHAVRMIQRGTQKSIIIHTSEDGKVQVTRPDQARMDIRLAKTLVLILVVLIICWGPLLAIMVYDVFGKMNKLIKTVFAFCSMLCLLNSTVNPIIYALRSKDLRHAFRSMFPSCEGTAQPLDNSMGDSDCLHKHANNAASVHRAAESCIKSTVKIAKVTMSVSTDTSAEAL
Chain of human CB2 receptors (P34972 whole entry): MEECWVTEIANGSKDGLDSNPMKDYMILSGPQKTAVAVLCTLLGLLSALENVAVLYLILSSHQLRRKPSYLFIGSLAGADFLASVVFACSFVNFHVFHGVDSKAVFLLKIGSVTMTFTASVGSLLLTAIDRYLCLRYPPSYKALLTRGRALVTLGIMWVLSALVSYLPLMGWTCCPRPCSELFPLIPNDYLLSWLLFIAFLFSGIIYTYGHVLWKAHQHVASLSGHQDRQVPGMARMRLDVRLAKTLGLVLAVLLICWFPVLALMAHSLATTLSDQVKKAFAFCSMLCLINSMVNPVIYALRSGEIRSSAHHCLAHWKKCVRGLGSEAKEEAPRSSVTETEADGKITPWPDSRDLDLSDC

What is called EC50 is the concentration at which the effect is half-maximal. Turning to `NC(=O)CC1(NC(=O)c2cc(OCC(F)(F)F)c(C3CC3)cn2)CS(=O)(=O)C1` [Example 160, N-[3-(2-amino-2-oxoethyl)-1,1-dioxothietan-3-yl]-5-cyclopropyl-4-(2,2,2-trifluoroethoxy)pyridine-2-carboxamide], the EC50 on human CB1 receptors was > 10000 nM; at human CB2 receptors, 11.8 nM.
In the case of `Cc1nc(C(NC(=O)c2cc(OCC(F)(F)F)c(C3CC3)cn2)C(C)(C)C)no1` (centres unmarked) [Example 161, 5-cyclopropyl-N-[2,2-dimethyl-1-(5-methyl-1,2,4-oxadiazol-3-yl)propyl]-4-(2,2,2-trifluoroethoxy)pyridine-2-carboxamide], the EC50 at human CB1 receptors is > 10000 nM; at human CB2 receptors, 8.8 nM.
On to `CC(C)(C)C(NC(=O)c1cc(OCC(F)(F)F)c(C2CC2)cn1)c1nn[nH]n1` (centres unmarked) [Example 162, 5-cyclopropyl-N-[2,2-dimethyl-1-(1H-tetrazol-5-yl)propyl]-4-(2,2,2-trifluoroethoxy)pyridine-2-carboxamide], for which the EC50 is > 10000 nM at human CB1 receptors and 71.7 nM on human CB2 receptors.
For the molecule `Cn1nnc(C(NC(=O)c2cc(OCC(F)(F)F)c(C3CC3)cn2)C(C)(C)C)n1` (centres unmarked) [Example 163, 5-cyclopropyl-N-[2,2-dimethyl-1-(2-methyltetrazol-5-yl)propyl]-4-(2,2,2-trifluoroethoxy)pyridine-2-carboxamide], the EC50 was > 10000 nM on human CB1 receptors and 4.5 nM at human CB2 receptors.
In the same order, the values of `CC(CC1CC1)(NC(=O)c1cc(OCC(F)(F)F)c(C2CC2)cn1)c1noc(N)n1` (centres unmarked) [Example 165, N-[2-(5-amino-1,2,4-oxadiazol-3-yl)-1-cyclopropylpropan-2-yl]-5-cyclopropyl-4-(2,2,2-trifluoroethoxy)pyridine-2-carboxamide] are > 10000 nM and 22 nM.
In the same order, the values of `Cc1nc([C@@](C)(NC(=O)c2cc(O[C@@H](C)C(F)(F)F)c(C3(F)COC3)cn2)C2CC2)no1` [Example 168, N-[1-cyclopropyl-1-(5-methyl-1,2,4-oxadiazol-3-yl)ethyl]-5-(3-fluorooxetan-3-yl)-4-[(2S)-1,1,1-trifluoropropan-2-yl]oxypyridine-2-carboxamide] are > 10000 nM and 281 nM.
In the same order, the values of `Cc1nc(C(C)(NC(=O)c2cc(O[C@@H](C)C(F)(F)F)c(C3(F)COC3)cn2)C2CC2)no1` (stereo partly drawn) [Example 169, N-[1-cyclopropyl-1-(5-methyl-1,2,4-oxadiazol-3-yl)ethyl]-5-(3-fluorooxetan-3-yl)-4-[(2S)-1,1,1-trifluoropropan-2-yl]oxypyridine-2-carboxamide] are > 10000 nM and 5.5 nM.
With `Cc1nc(C(C)(CC2CC2)NC(=O)c2cc(O[C@@H](C)C(F)(F)F)c(C3(F)COC3)cn2)no1` (stereo partly drawn) [Example 170, N-[1-cyclopropyl-2-(5-methyl-1,2,4-oxadiazol-3-yl)propan-2-yl]-5-(3-fluorooxetan-3-yl)-4-[(2S)-1,1,1-trifluoropropan-2-yl]oxypyridine-2-carboxamide], the results for the EC50 on human CB1 receptors and on human CB2 receptors were > 10000 nM and 25.4 nM, respectively.
In the same order, the values of `Cc1nc(C(C)(CC2CC2)NC(=O)c2cc(O[C@@H](C)C(F)(F)F)c(C3(F)COC3)cn2)no1` (stereo partly drawn) [Example 171, N-[1-cyclopropyl-2-(5-methyl-1,2,4-oxadiazol-3-yl)propan-2-yl]-5-(3-fluorooxetan-3-yl)-4-[(2S)-1,1,1-trifluoropropan-2-yl]oxypyridine-2-carboxamide] are > 10000 nM and 14.9 nM.
For `CNC(=O)[C@@H](NC(=O)c1cc(O[C@@H](C)C(F)(F)F)c(C2(F)COC2)cn1)C(C)(C)C` [Example 172, N-[(2S)-3,3-dimethyl-1-(methylamino)-1-oxobutan-2-yl]-5-(3-fluorooxetan-3-yl)-4-[(2S)-1,1,1-trifluoropropan-2-yl]oxypyridine-2-carboxamide], in that order: > 10000 nM and 32.9 nM.
In the case of `Cc1nnc(C(C)(CC2CC2)NC(=O)c2cc(OCC(F)(F)F)c(C3CC3)cn2)o1` (centres unmarked) [Example 173, 5-cyclopropyl-N-[1-cyclopropyl-2-(5-methyl-1,3,4-oxadiazol-2-yl)propan-2-yl]-4-(2,2,2-trifluoroethoxy)pyridine-2-carboxamide], the EC50 at human CB1 receptors is > 10000 nM; on human CB2 receptors, 54.4 nM.
For `Cc1nnc(C(NC(=O)c2cc(OCC(F)(F)F)c(C3CC3)cn2)C(C)(C)C)o1` (centres unmarked) [Example 174, 5-cyclopropyl-N-[2,2-dimethyl-1-(5-methyl-1,3,4-oxadiazol-2-yl)propyl]-4-(2,2,2-trifluoroethoxy)pyridine-2-carboxamide], in that order: > 10000 nM and 21.8 nM.
For `Cc1nnc(C(NC(=O)c2cc(O[C@@H](C)C(F)(F)F)c(C3(F)COC3)cn2)C(C)(C)C)o1` (stereo partly drawn) [Example 175, N-[2,2-dimethyl-1-(5-methyl-1,3,4-oxadiazol-2-yl)propyl]-5-(3-fluorooxetan-3-yl)-4-[(2S)-1,1,1-trifluoropropan-2-yl]oxypyridine-2-carboxamide], in that order: > 10000 nM and 95.5 nM.
Take `Cc1nnc(C(C)(CC2CC2)NC(=O)c2cc(O[C@@H](C)C(F)(F)F)c(C3(F)COC3)cn2)o1` (stereo partly drawn) [Example 176, N-[1-cyclopropyl-2-(5-methyl-1,3,4-oxadiazol-2-yl)propan-2-yl]-5-(3-fluorooxetan-3-yl)-4-[(2S)-1,1,1-trifluoropropan-2-yl]oxypyridine-2-carboxamide]: the EC50 on human CB1 receptors is > 10000 nM; on human CB2 receptors it was 442 nM.
In the same order, the values of `Cc1cnc(C(C)(CC2CC2)NC(=O)c2cc(OCC(F)(F)F)c(C3CC3)cn2)s1` (centres unmarked) [Example 177, 5-cyclopropyl-N-[1-cyclopropyl-2-(5-methyl-1,3-thiazol-2-yl)propan-2-yl]-4-(2,2,2-trifluoroethoxy)pyridine-2-carboxamide] are > 10000 nM and 12.4 nM.
For `Cc1nc(C(C)(NC(=O)c2cc(OCC(F)(F)F)c(C3CC3)cn2)C(N)=O)no1` (centres unmarked) [Example 180, N-[1-amino-2-(5-methyl-1,2,4-oxadiazol-3-yl)-1-oxopropan-2-yl]-5-cyclopropyl-4-(2,2,2-trifluoroethoxy)pyridine-2-carboxamide], in that order: > 10000 nM and 149 nM.
For `Cc1nc(C(C)(NC(=O)c2cc(OCC(F)(F)F)c(C3CC3)cn2)C(=O)N(C)C)no1` (centres unmarked) [Example 181, 5-cyclopropyl-N-[1-(dimethylamino)-2-(5-methyl-1,2,4-oxadiazol-3-yl)-1-oxopropan-2-yl]-4-(2,2,2-trifluoroethoxy)pyridine-2-carboxamide], in that order: > 10000 nM and 2 nM.
Consider `Cc1nc(C(C)(NC(=O)c2cc(OCC(F)(F)F)c(C3CC3)cn2)C(=O)N2CCC2)no1` (centres unmarked) [Example 182, N-[1-(azetidin-1-yl)-2-(5-methyl-1,2,4-oxadiazol-3-yl)-1-oxopropan-2-yl]-5-cyclopropyl-4-(2,2,2-trifluoroethoxy)pyridine-2-carboxamide], for which the concentration for a half-maximal effect (EC50) was > 10000 nM at human CB1 receptors and 5.4 nM on human CB2 receptors.
For `CNC(=O)C(C)(NC(=O)c1cc(O[C@@H](C)C(F)(F)F)c(C2(F)COC2)cn1)c1noc(C)n1` (stereo partly drawn) [Example 183, 5-(3-fluorooxetan-3-yl)-N-[1-(methylamino)-2-(5-methyl-1,2,4-oxadiazol-3-yl)-1-oxopropan-2-yl]-4-[(2S)-1,1,1-trifluoropropan-2-yl]oxypyridine-2-carboxamide], in that order: > 10000 nM and 917 nM.
